Experimental data as given in patent publication US6689883B1, “Substituted pyridines and pyridazines with angiogenesis inhibiting activity” (Bayer Pharmaceuticals Corporation, priority 1999, dated 2004).

molecular target: T1, cytosolic kinase domain of KDR kinase (Homo sapiens, UniProt P35968); test: KDR Assay (ELISA, poly(Glu4;Tyr1) phosphorylation); format: biochemical; details: 3.3 μM ATP, 60 minutes at room temperature
T1 construct: The cytosolic kinase domain of KDR kinase was expressed as a 6His fusion protein in Sf9 insect cells; 6His; made in house; host or cells: Sf9 insect cells
Method: The cytosolic kinase domain of KDR kinase was expressed as a 6His fusion protein in Sf9 insect cells. The KDR kinase domain fusion protein was purified over a Ni++ chelating column. Ninety-six well ELISA plates were coated with 5 μg poly(Glu4;Tyr1) (Sigma Chemical Co., St Louis, Mo.) in 100 μl HEPES buffer (20 mM HEPES, pH 7.5, 150 mM NaCl, 0.02% Thimerosal) at 4° overnight. Before use, the plate was washed with HEPES, NaCl buffer and the plates were blocked with 1% BSA, 0.1% Tween 20 in HEPES, NaCl buffer.
Test compounds were serially diluted in 100% DMSO from 4 mM to 0.12 μM in half-log dilutions. These dilutions were further diluted twenty fold in H2O to obtain compound solutions in 5% DMSO. Following loading of the assay plate with 85 μl of assay buffer (20 mM HEPES, pH 7.5, 100 mM KCl, 10 mM MgCl2, 3 mM MnCl2, 0.05% glycerol, 0.005% Triton X-100, 1 mM-mercaptoethanol, with or without 3.3 μM ATP), 5 μl of the diluted compounds were added to a final assay volume of 100 μl. Final concentrations were between 10 μM, and 0.3 nM in 0.25% DMSO. The assay was initiated by the addition of 10 μl (30 ng) of KDR kinase domain.
The assay was incubated with test compound or vehicle alone with gentle agitation at room temperature for 60 minutes. The wells were washed and phosphotyrosines (PY) were probed with an anti-phosphotyrosine (PY), mAb clone 4G10 (Upstate Biotechnology, Lake Placid, N.Y.). PY/anti-PY complexes were detected with an anti-mouse IgG/HRP conjugate (Amersham International plc, Buckinghamshire, England). Phosphotyrosine was quantitated by incubating with 100 μl 3,3′,5,5′tetramethylbenzidine solution (Kirkegaard and Perry, TMB Microwell 1 Component peroxidase substrate). Color development was arrested by the addition of 100 μl 1% HCl-based stop solution (Kirkegaard and Perry, TMB 1 Component Stop Solution).
Optical densities were determined spectrophotometrically at 450 nm in a 96-well plate reader, SpectraMax 250 (Molecular Devices). Background (no ATP in assay) OD values were subtracted from all ODs and the percent inhibition was calculated according to the equation: [formula]

T1 sequence (P35968 834-1162 limits assumed): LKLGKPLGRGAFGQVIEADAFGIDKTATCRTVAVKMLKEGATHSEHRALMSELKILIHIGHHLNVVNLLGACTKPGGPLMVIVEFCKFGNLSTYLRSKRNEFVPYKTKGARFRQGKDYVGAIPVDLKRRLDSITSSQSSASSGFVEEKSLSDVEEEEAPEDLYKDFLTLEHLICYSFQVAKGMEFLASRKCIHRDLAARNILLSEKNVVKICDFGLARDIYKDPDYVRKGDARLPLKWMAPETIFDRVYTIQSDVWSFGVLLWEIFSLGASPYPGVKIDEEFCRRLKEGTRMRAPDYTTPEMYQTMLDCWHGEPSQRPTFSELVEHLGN

IC50 [nM] | SMILES
≤ 100 | Clc1ccc(Nc2ncc(Sc3ccncc3)c3ccccc23)cc1 [Example 1, 1-(4-chlorophenylamino)-4-(4-pyridylthio)isoquinoline]
≤ 100 | Clc1ccc(Nc2ncc(Cc3ccncc3)c3ccccc23)cc1 [Example 4, 1-(4-chlorophenylamino)-4-(4-pyridylmethyl)isoquinoline]
100 to 1000 | Cc1ccc(Nc2ncc(Cc3ccncc3)c3ccccc23)cc1F [Example 7, 1-(3-fluoro-4-methylphenylamino)-4-(4-pyridylmethyl)-isoquinoline]
≤ 100 | NC(=O)c1cc(Cc2cnc(Nc3ccc(Cl)cc3)c3ccccc23)ccn1 [Example 12, 1-(4-chlorophenylamino)-4-(2-aminocarbonyl-4-pyridylmethyl)isoquinoline]
≤ 100 | CNC(=O)c1cc(Cc2cnc(Nc3ccc(Cl)cc3)c3ccccc23)ccn1 [Example 13, 1-(4-chlorophenylamino)-4-(2-methylaminocarbonyl-4-pyridylmethyl)isoquinoline]
≤ 100 | NC(=O)c1cc(COc2nnc(Nc3ccc(Cl)cc3)c3ccoc23)ccn1 [Example 16, 4-(4-chlorophenylamino)-7-(2-aminocarbonyl-4-pyridylmethoxy)furo-[2,3-d]pyridazine]
≤ 100 | Clc1ccc(Nc2nnc(Nc3ccc4ncsc4c3)c3sccc23)cc1 [Example 17, 4-(4-chlorophenylamino)-7-(benzothiazol-6-ylamino)thieno[2,3-d]pyridazine]
≤ 100 | Brc1ccc2c(c1)CCN2c1nnc(OCc2ccncc2)c2occc12 [Example 19, 4-(5-bromoindolin-1-yl)-7-(4-pyridylmethoxy)furo[2,3-d]pyridazine]
≤ 100 | CNC(=O)c1cc(COc2nnc(Nc3ccc(OC)cc3)c3ccoc23)ccn1 [Example 20, 4-(4-methoxyphenylamino)-7-(2-methylaminocarbonyl-4-pyridylmethoxy)furo-[2,3-d]pyridazine]
≤ 100 | COc1ccc(Nc2nnc(OCc3ccnc(C(N)=O)c3)c3occc23)cc1 [Example 22, 4-(4-methoxyphenylamino)-7-(2-aminocarbonyl4-pyridylmethoxy)furo-[2,3-d]pyridazine]
> 1000 | c1cc2c(Nc3ccc4nn[nH]c4c3)nnc(Nc3ccc4nn[nH]c4c3)c2s1 [Example 26]
> 1000 | c1cc2c(Nc3ccc4nn[nH]c4c3)nnc(Nc3ccc4nn[nH]c4c3)c2o1 [Example 29]
> 1000 | c1cc2c(Nc3ccc4[nH]ncc4c3)nnc(Nc3ccc4[nH]ncc4c3)c2o1 [Example 30]
> 1000 | c1nc2c(Nc3ccc4nn[nH]c4c3)nnc(Nc3ccc4nn[nH]c4c3)c2[nH]1 [Example 31]
> 1000 | c1nc2c(Nc3ccc4[nH]ncc4c3)nnc(Nc3ccc4[nH]ncc4c3)c2[nH]1 [Example 32]
> 1000 | c1nc2c(Nc3ccc4ncsc4c3)nnc(Nc3ccc4ncsc4c3)c2[nH]1 [Example 33]
≤ 100 | CNC(=O)c1cc(COc2nnc(Nc3ccc(F)cc3)c3ccoc23)ccn1 [Example 37]
≤ 100 | CNC(=O)c1cc(COc2nnc(Nc3ccc(Br)cc3)c3ccoc23)ccn1 [Example 38]
≤ 100 | CNC(=O)c1cc(COc2nnc(Nc3ccc(C)cc3)c3ccoc23)ccn1 [Example 39]
≤ 100 | CNC(=O)c1cc(COc2nnc(Nc3cccc(C)c3)c3ccoc23)ccn1 [Example 40]
> 1000 | CNC(=O)c1cc(COc2nnc(Nc3ccc(N(C)C)cc3)c3ccoc23)ccn1 [Example 41]
≤ 100 | CNC(=O)c1cc(COc2nnc(Nc3ccc(C(F)(F)F)cc3)c3ccoc23)ccn1 [Example 42]
≤ 100 | CNC(=O)c1cc(COc2nnc(Nc3ccc(OC(F)(F)F)cc3)c3ccoc23)ccn1 [Example 43]
≤ 100 | CNC(=O)c1cc(COc2nnc(Nc3ccc(OC)c(Cl)c3)c3ccoc23)ccn1 [Example 44]
≤ 100 | CNC(=O)c1cc(COc2nnc(Nc3ccc(F)c(F)c3)c3ccoc23)ccn1 [Example 47]
≤ 100 | CNC(=O)c1cc(COc2nnc(Nc3ccc4c(c3)CCC4)c3ccoc23)ccn1 [Example 49]
≤ 100 | CNC(=O)c1cc(COc2nnc(Nc3cccc(OC)c3)c3ccoc23)ccn1 [Example 51]

IC50 [nM] | SMILES
≤ 100 | CNC(=O)c1cc(COc2nnc(Nc3ccc4c(c3)OCO4)c3ccoc23)ccn1 [Example 52]
≤ 100 | CNC(=O)c1cc(COc2nnc(Nc3ccc(Cl)c(Cl)c3)c3ccoc23)ccn1 [Example 53]
≤ 100 | CNC(=O)c1cc(COc2nnc(Nc3cc(C)cc(C)c3)c3ccoc23)ccn1 [Example 54]
≤ 100 | COc1ccc(Nc2nnc(OCc3ccncc3)c3occc23)cc1 [Example 56]
≤ 100 | CNC(=O)c1cc(COc2nnc(Nc3ccc(O)cc3)c3ccoc23)ccn1 [Example 57]
≤ 100 | CNC(=O)c1cc(COc2nnc(Nc3ccccc3)c3ccoc23)ccn1 [Example 59]
≤ 100 | CNC(=O)c1cc(COc2nnc(Nc3ccc(C)c(OC)c3)c3ccoc23)ccn1 [Example 60]
≤ 100 | CNC(=O)c1cc(COc2nnc(Nc3ccc4sc(C)nc4c3)c3ccoc23)ccn1 [Example 62]
≤ 100 | CNC(=O)c1cc(COc2nnc(Nc3ccc4c(c3)CCO4)c3ccoc23)ccn1 [Example 65]
≤ 100 | CNC(=O)c1cc(COc2nnc(Nc3ccc4c(c3)CCO4)c3ccsc23)ccn1 [Example 66]
≤ 100 | CNC(=O)c1cc(COc2nnc(Nc3cccc(C)c3)c3ccsc23)ccn1 [Example 68]
≤ 100 | CNC(=O)c1cc(COc2nnc(Nc3ccc(OC)cc3)c3ccsc23)ccn1 [Example 69]
≤ 100 | CNC(=O)c1cc(COc2nnc(Nc3ccc(OC(F)(F)F)cc3)c3ccsc23)ccn1 [Example 70]
≤ 100 | CNC(=O)c1cc(COc2nnc(Nc3ccc(C(F)(F)F)cc3)c3ccsc23)ccn1 [Example 71]
≤ 100 | CNC(=O)c1cc(COc2nnc(Nc3ccc(Br)cc3)c3ccsc23)ccn1 [Example 72]
≤ 100 | CNC(=O)c1cc(COc2nnc(Nc3ccc4c(c3)CCC4)c3ccsc23)ccn1 [Example 73]
≤ 100 | CNC(=O)c1cc(COc2nnc(Nc3ccc4c(c3)OCO4)c3ccsc23)ccn1 [Example 74]
≤ 100 | c1nc2ccc(Nc3nnc(Nc4ccc5ncsc5c4)c4sccc34)cc2s1 [Example 75]
≤ 100 | Cc1ccc(Nc2nnc(Nc3ccc4ncsc4c3)c3sccc23)c(C)c1 [Example 78]
> 1000 | COc1cc(Nc2nnc(Nc3ccc4ncsc4c3)c3sccc23)cc(OC)c1OC [Example 80]
> 1000 | CN(C)C(=O)c1cc(COc2nnc(Nc3ccc(Cl)cc3)c3ccoc23)ccn1 [Example 81]
≤ 100 | O=C(NC1CC1)c1cc(COc2nnc(Nc3ccc(Cl)cc3)c3ccoc23)ccn1 [Example 82B]
≤ 100 | O=C(NCCO)c1cc(COc2nnc(Nc3ccc(Cl)cc3)c3ccoc23)ccn1 [Example 82C]
≤ 100 | CCNC(=O)c1cc(COc2nnc(Nc3ccc(Cl)cc3)c3ccoc23)ccn1 [Example 82D]
> 1000 | c1ccc2c(Nc3ccc4nn[nH]c4c3)nnc(Nc3ccc4nn[nH]c4c3)c2c1 [Example 94]
≤ 100 | Brc1ccc2c(c1)CCN2c1nnc(Nc2ccc3ncsc3c2)c2ccccc12 [Example 97]
≤ 100 | FC1(F)Oc2ccc(Nc3nnc(Nc4ccc5ncsc5c4)c4ccccc34)cc2O1 [Example 98]
